In US6514951B1, “Pour-on formulations effective for the control of internal and external parasites of homothermic animals” (American Cyanamid Company, priority 1989, dated 2003):

Tested on: gastrointestinal nematodes
Assay: Influence of simulated rain on reduction of nematode egg output in feces of cattle after pour-on
Type: in vivo, Cooperia, Haemonchus, Ostertagia and Trichostrongylus
Conditions: at all times posttreatment regardless of exposure to simulated rainfall
Text: The objective of this study is to determine the potential effect of rainfall on the efficacy of a pour-on formulation of 23-(O-methyloxime)-LL-F28249α (0.5% w/v) against gastrointestinal nematodes. Formulation 10 reported in Example 2, above, is employed for the study.
Forty-eight mixed beef breed heifers are ranked according to the average of the day −3 and day −2 fecal nematode egg counts and randomly assigned to the following groups of 6 animals each:
All cattle treated with 23-(O-methyloxime)-LL-F28249α pour-on are treated with 0.5 mg 23-(O-methyloxime)-LL-F28249α per kg of body weight. All animals exposed to simulated rain are sprayed with the equivalent of 1 inch of water for 30 minutes.
Following treatment, cattle are housed in outdoor pens which are partially covered by a three sided shed. Cattle remain outdoors during the entire posttreatment period. However, they are confined to a covered portion of the pen when it is raining or rainfall is imminent. […]
The simulated rainfall apparatus used in this trial consists of a 12 feet×12 feet pen with right angle directional spray nozzles in each corner. It is calculated that 89.75 gallons of water applied to this size pen are the equivalent of 1 inch of rain. […]
Fecal samples are taken from all animals on days 7, 14 and 21 posttreatment to evaluate nematode egg counts. The values are expressed as number of eggs per 1 g of feces.

**Q.** With `CO/N=C1\C[C@]2(C[C@@H]3CC(C/C=C(\C)C[C@@H](C)/C=C/C=C4\CO[C@@H]5[C@H](O)C(C)=C[C@@H](C(=O)O3)[C@]45O)O2)O[C@H](/C(C)=C/C(C)C)[C@H]1C` [23-(O-methyloxime)-LL-F28249α] as the compound, how does the “nematode egg counts (in words)” value read?
**A.** Its value is “significantly reduces”.
